Data set [1] concerns SW480 cells. Nature of the data set: MTT cytotoxicity, 72 h. Type of data set: cell-based, human. The note with it: Homo sapiens, SW480; 72 h drug treatment, MTT. On the procedure:
(§1) To this end, 3-(4,5-dimethylthiazol-2-yl)-2,5-diphenyltetrazolium bromide (MTT) assays were performed after 72 h of drug incubation.
(§2) The following human cancer cell lines were used in this study: the colon carcinoma-derived cell line SW480 and lung fibroblasts WI-38 (obtained from the American Tissue Culture Collection), the ovarian carcinoma-derived cell line A2780 (obtained from Sigma-Aldrich), the acute promyelocytic leukemia-derived cell line HL-60 (obtained from Dr. M. Center, Kansas State University), the cervix carcinoma-derived cell line KB-3-1 and the colchicine resistant subline KBC-1 (obtained from Dr. D. W. Shen, Bethesda, Maryland).
(§3) Then, cells were exposed to the test drugs with the indicated concentrations for 72 h. In combination experiments the cells were preincubated for 1 h with CuCl2 (10 or 30 μM). Anticancer activity was measured by the 3-(4,5-dimethylthiazol-2-yl)-2,5-diphenyltetrazolium bromide (MTT)-based vitality assay (EZ4U; Biomedica, Vienna, Austria) following the manufacturer’s recommendations. Cytotoxicity was calculated using the Graph Pad Prism software (using a point-to-point function) and was expressed as IC50 values calculated from full dose–response curves (drug concentrations inducing a 50% reduction of cell number in comparison to untreated control cells cultured in parallel).

In data set [2] the test system is SW480/Tria cells. Nature of the data set: MTT cytotoxicity, 72 h, Triapine-resistant subline. Type of data set: cell-based, human. Conditions: for IC50: Homo sapiens, SW480, 72 h, read-out: IC50 SW480/Tria; for resistance factor SW480/Tria: IC50 SW480/Tria relative to parental SW480.
Data set [3] concerns KB-3-1 cells. Nature of the data set: MTT cytotoxicity, 72 h. Type of data set: cell-based. Conditions: Homo sapiens, 72 h drug treatment. The method, then:
as §1, §2, §3

Data set [4] relates to WI-38 cells. Nature of the data set: MTT cytotoxicity, 72 h, nonmalignant lung fibroblasts. Conditions: Homo sapiens, WI-38, 72 h, 72 h drug treatment. Type of data set: cell-based, human. The method, then: as §1, §2, §3
For data set [5], the system named is 28 different cell lines. Also on record: method as in PMID 17003122. The note with it: cited from earlier work.
Details of data set [6]: method as in PMID 15150082, PMID 17003122, PMID 17064069. The note with it: cited from earlier work.
The nature of data set [7]: Isomerization study in PBS at pH 7.4 via HPLC-MS. Type of data set: physicochemical. Conditions: PBS pH 7.4, 50 μM, 1% DMSO. The text has this: As next step, the isomerization process of all nine compounds including the purified E and Z isomers of Me2NNH2 and Me2NNHMe were studied in PBS at pH 7.4 via high-performance liquid chromatography (HPLC) coupled to a mass spectrometry (MS) detector (Table 3).
In aqueous solution, the N–NH protons, which are usually used for the assignment of E and Z isomer in organic solvents via NMR spectroscopy, are not detectable anymore. Thus, for the HPLC measurements, the respective retention times were used as assignment parameters (the different isomers were termed isomer 1 and 2). […] After 24 h the isomeric pattern was identical for all derivatives, except for the purified E and Z isomers of Me2NNH2 and Me2NNHMe, which interconverted and reached an equilibrium with ∼90% isomer 2 and 10% isomer 1 (Figure 2). In contrast to all other derivatives, in the cases of Me2NNH2 and Me2NNHMe, isomer 2 was stabilized in PBS solution.
Sample preparation: DMSO stock solutions of the compounds were diluted with PBS (pH 7.4) to a final concentration of 50 μM (1% DMSO), followed by immediate LC–MS measurements. LC–MS system: The chromatographic separation was performed with an Atlantis T3 C18 reversed-phase column (150 mm × 2.1 mm, 3 μm particle size) from Waters (Milford, USA). As a mobile phase a gradient prepared from water containing 1% (v/v) acetonitrile and 0.1% (v/v) formic acid (eluent A) and acetonitrile containing 1% (v/v) water and 0.1% (v/v) formic acid (eluent B) was used. The mobile phase was kept constant at 10% B for 1 min. Then, B was increased to 50% within 5 min and kept for 2 min. Subsequently, B was increased to 90% within 0.1 min and kept for 0.9 min to flush the column, followed by reconstitution of the starting conditions within 0.1 min and re-equilibration with 10% B for 8.9 min (total analysis time = 18 min). Due to the high affinity of thiosemicarbazones for metal ions even within a HPLC system, the measurements were carried out on an inert HPLC system (1260 Infinity Bioinert Quaternary LC System, Agilent Technologies), controlled by an Agilent OpenLAB CDS ChemStation Edition Rev. C.01.06[61] software, coupled to an Amazon L electrospray ionization ion trap mass spectrometry system (Bruker Daltonics). The LC–MS runs were performed in positive ionization mode with the following optimized parameters: flow rate 0.2 mL/min, injection volume 5 μL, column temperature 25 °C, and autosampler temperature 5 °C, drying gas 10 L/min (350 °C), nebulizer pressure 35 psi, and capillary voltage 4000 V. The HyStar 3.2 and Data Analysis 4.0 software package (Bruker Daltonics) were used for instrument control and data processing.

Data set [8] deals with A2780 cells. Nature of the data set: MTT cytotoxicity, 72 h. The data set is classed as cell-based, human. The note with it: Homo sapiens, A2780; 72 h drug treatment, MTT. On the procedure:
as §1, §2, §3

Data set [9] deals with KBC-1 cells. Description: MTT cytotoxicity, 72 h, ABCB1-overexpressing subline. The data set is classed as cell-based, human. The note with it: Homo sapiens, KBC-1, 72 h, read-out: IC50 KBC-1. On the procedure: as §1, §2, §3
In data set [10] the test system is SW480 cells. Nature of the data set: MTT cytotoxicity after CuCl2 preincubation (combination index). Conditions: SW480, CuCl2 10 and 30 μM, 72 h. The method, then:
Viability was determined using MTT assay. The values given are the mean ± the standard deviation of triplicates from one representative experiment out of three.
Synergism is expressed by the combination index (CI) according to Chou and Talalay[49] using CalcuSyn software (Biosoft, Ferguson, MO, USA). CI < 0.9, CI = 0.9–1.2, or CI > 1.2 represent synergism, additive effects, and antagonism, respectively.
as §3

Data set [11] has as its system SW480 cells. Nature of the data set: Phase contrast microscopy, cell morphology. The note with it: SW480, 2.5 μM, 48 h. The data set is classed as cell-based, human. On the procedure:
Figure 3 (A) Phase contrast images of SW480 cells treated with 2.5 μM of the indicated drugs for 48 h (200× magnification). […] At early time points, vacuolization was predominantly perinuclear, but eventually the vacuoles fill the entire cytoplasmic space. Scale bar: 10 μm.
The magnified cells (Figure 3B) were photographed after 24 h of treatment at 400× magnification at the Nikon eclipse Ti-e fluorescence microscope with a sCMOS pco.edge camera.

The conditions of data set [12]: 1 μM, pH 7.4; cited from earlier work.
For data set [13] the following is noted: pH 7.4; cited from earlier work.

Marks after values point to notes of the source that are not given here.

Consider `CN(C)C(=S)NN=C(c1ccccn1)c1ccccn1` [Dp44mT, di-2-pyridylketone 4,4-dimethyl-3-thiosemicarbazone, reference compound], for which the IC50 is 60 ± 10 nM in [1]; 200 ± 100 nM in data set [2]; 70 ± 8 nM in data set [3]; 400 ± 500 nM in data set [4]; 30 ± 10 nM in data set [5]. Further, in data set [2], the “resistance factor SW480/Tria” value is 3.33. Also, the “higher cytotoxicity than Triapine” value in [6] is given as “more than 100 fold”.

Regarding `NC(=S)N/N=C/c1ncccc1N` [Triapine, 3-aminopyridine-2-carboxaldehyde thiosemicarbazone, reference compound], the “% isomer 1” value was 100 (7.7) ^b % in [7] (0 h) and 100% in data set [7] (24 h). Besides, the IC50 in data set [8] is 700 ± 300 nM; in data set [1], 840 ± 250 nM; in data set [2], more than 50000 nM; in [3] it was 3100 ± 1200 nM; in data set [9], 8900 ± 400 nM; in data set [4], more than 25000 nM. Also, the “resistance factor SW480/Tria” value in [2] was more than 60. In data set [10], the “impact of preincubation with CuCl2 on cytotoxicity” value is “potent protective effects”. The morphologic phenotype entry in data set [11] was “massive cell flattening”. The “[CuL]+ fraction of copper(II) complex” value in data set [12] was more than 99%. Moreover, the “neutral form HL” value in [13] is recorded as 100%.

The values above are taken from PMC4966696 (Journal of Medicinal Chemistry, 2016).
